“And” between values parts separate entries of the source, which are not always exact repeats. Identical values can stand only once. Inconclusive results and toxic doses are left out. Rule for the calls: active = survival T/C of 150% or more; inactive = T/C below 125% in these data.
System: BDF1 mice, B16 melanoma ip, median survival T/C
Experiment: NCI In Vivo Anticancer Drug Screen. Data for tumor model B16 Melanoma (intraperitoneal) in B6D2F1 (BDF1) mice
Settings: endpoint: median survival time, higher = longer survival
Procedure, shortened: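 Antitumor activity is assessed in mice bearing a transplanted tumor, with survival or tumor size compared against vehicle-dosed controls and expressed as T/C.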

[1] = dose: 50.0 mg/kg/injection, schedule: Q04DX003 (ip), vehicle: saline with Tween-80
[2] = dose: 100.0 mg/kg/injection, schedule: Q04DX003 (ip), vehicle: saline with Tween-80
[3] = dose: 200.0 mg/kg/injection, schedule: Q04DX003 (ip), vehicle: saline with Tween-80
[4] = dose: 50.0 mg/kg/injection, schedule: Q01DX009 (ip), vehicle: Klucel (hydroxypropylcellulose) (HPC)
[5] = dose: 200.0 mg/kg/injection, schedule: Q01DX009 (ip), vehicle: Klucel (hydroxypropylcellulose) (HPC)
[6] = dose: 100.0 mg/kg/injection, schedule: Q04DX003 (ip), vehicle: Klucel (hydroxypropylcellulose) (HPC)
[7] = dose: 200.0 mg/kg/injection, schedule: Q04DX003 (ip), vehicle: Klucel (hydroxypropylcellulose) (HPC)
[8] = dose: 12.5 mg/kg/injection, schedule: Q01DX009 (ip), vehicle: saline with Tween-80
[9] = dose: 25.0 mg/kg/injection, schedule: Q01DX009 (ip), vehicle: saline with Tween-80
[10] = dose: 50.0 mg/kg/injection, schedule: Q01DX009 (ip), vehicle: saline with Tween-80
[11] = dose: 12.5 mg/kg/injection, schedule: Q01DX009 (ip), vehicle: saline
[12] = dose: 100.0 mg/kg/injection, schedule: Q01DX009 (ip), vehicle: saline
[13] = dose: 100.0 mg/kg/injection, schedule: Q01DX009 (ip), vehicle: Klucel (hydroxypropylcellulose) (HPC)
[14] = dose: 12.5 mg/kg/injection, schedule: Q01DX009 (ip), vehicle: Klucel (hydroxypropylcellulose) (HPC)
[15] = dose: 100.0 mg/kg/injection, schedule: Q01DX009 (ip), vehicle: saline with Tween-80

Measured: T/C

CC(=O)OC(C)(C)/C=C/C(=O)[C@](C)(O)[C@H]1[C@H](O)C[C@@]2(C)[C@@H]3CC=C4[C@@H](C=C(O)C(=O)C4(C)C)[C@]3(C)C(=O)C[C@]12C
inactive: dose: 0.25 mg/kg/injection, schedule: Q01DX009 (ip), vehicle: saline with Tween-80 90 % of control | dose: 0.5 mg/kg/injection, schedule: Q01DX009 (ip), vehicle: saline with Tween-80 109 % of control | dose: 1.0 mg/kg/injection, schedule: Q01DX009 (ip), vehicle: saline with Tween-80 102 % of control | dose: 2.0 mg/kg/injection, schedule: Q01DX009 (ip), vehicle: saline with Tween-80 93 % of control | dose: 4.0 mg/kg/injection, schedule: Q01DX009 (ip), vehicle: saline with Tween-80 95 % of control

O=C(O)CCC(=O)Nc1ccccc1C(F)(F)F
inactive: dose: 12.5 mg/kg/injection, schedule: Q04DX003 (ip), vehicle: saline with Tween-80 108 % of control | dose: 25.0 mg/kg/injection, schedule: Q04DX003 (ip), vehicle: saline with Tween-80 111 % of control | [1] 113 % of control | [2] 108 % of control | [3] 105 % of control

COC(=O)C1(C)CCC(c2ccc(OC)cc2)CC1=O (stereo not drawn)
inactive: [4] 90 % of control | [5] 87 % of control

Brc1ccc(C=C2c3ccccc3-c3ccccc32)cc1
inactive: [6] 97 % of control | [7] 105 % of control | dose: 400.0 mg/kg/injection, schedule: Q04DX003 (ip), vehicle: Klucel (hydroxypropylcellulose) (HPC) 102 % of control

Cc1c(N)nc(C(CC(N)=O)NCC(N)C(N)=O)nc1C(=O)NC(C(=O)NC(C)C(O)C(C)C(=O)NC(C(=O)NCCc1nc(-c2nc(C(=O)NCCCNCCCc3ccccn3)cs2)cs1)C(C)O)C(OC1OC(CO)C(O)C(O)C1OC1OC(CO)C(O)C(OC(N)=O)C1O)c1cnc[nH]1 (stereo not drawn)
inactive: dose: 1.5 mg/kg/injection, schedule: Q01DX009 (ip), vehicle: water 93 % of control | dose: 3.0 mg/kg/injection, schedule: Q01DX009 (ip), vehicle: water 102 % of control | dose: 6.0 mg/kg/injection, schedule: Q01DX009 (ip), vehicle: water 102 % of control and 105 % of control | dose: 12.0 mg/kg/injection, schedule: Q01DX009 (ip), vehicle: water 105 % of control and 110 % of control | dose: 24.0 mg/kg/injection, schedule: Q01DX009 (ip), vehicle: water 100 % of control

NC(=O)c1ccccc1OCc1ccccc1
inactive: dose: 75.0 mg/kg/injection, schedule: Q01DX009 (ip), vehicle: Klucel (hydroxypropylcellulose) (HPC) 100 % of control | dose: 150.0 mg/kg/injection, schedule: Q01DX009 (ip), vehicle: Klucel (hydroxypropylcellulose) (HPC) 101 % of control | dose: 300.0 mg/kg/injection, schedule: Q01DX009 (ip), vehicle: Klucel (hydroxypropylcellulose) (HPC) 101 % of control

CCc1ccc(NC2=NCCO2)cc1
inactive: [8] 102 % of control | [9] 97 % of control | [10] 91 % of control

CCOC(=O)c1c[nH]c2oc(/C=N/N3CC(CN4CCOCC4)OC3=O)cc2c1=O (stereo not drawn)
inactive: [11] 95 % of control | dose: 25.0 mg/kg/injection, schedule: Q01DX009 (ip), vehicle: saline 98 % of control | dose: 50.0 mg/kg/injection, schedule: Q01DX009 (ip), vehicle: saline 97 % of control | [12] 105 % of control

Cc1ccc(S(=O)(=O)c2ccc(Sc3cccc[n+]3[O-])c3nonc23)cc1
inactive: dose: 80.0 mg/kg/injection, schedule: Q04DX002 (ip), vehicle: saline with Tween-80 97 % of control | dose: 160.0 mg/kg/injection, schedule: Q04DX002 (ip), vehicle: saline with Tween-80 102 % of control | dose: 320.0 mg/kg/injection, schedule: Q04DX002 (ip), vehicle: saline with Tween-80 100 % of control

O=C1C=CC(=O)c2c(Cl)ccc(O)c21
inactive: dose: 0.63 mg/kg/injection, schedule: Q01DX009 (ip), vehicle: Klucel (hydroxypropylcellulose) (HPC) 90 % of control | dose: 1.25 mg/kg/injection, schedule: Q01DX009 (ip), vehicle: Klucel (hydroxypropylcellulose) (HPC) 95 % of control

COC(=O)C1(C(=O)OC)CC1CCl (stereo not drawn)
inactive: [2] 90 % of control | [3] 96 % of control

NC(=O)c1ccccc1NC(=O)Nc1ccccc1
inactive: [13] 89 % of control | [5] 91 % of control | dose: 400.0 mg/kg/injection, schedule: Q01DX009 (ip), vehicle: Klucel (hydroxypropylcellulose) (HPC) 89 % of control

COC1=C2CC(C)CC(OC)C(O)C(C)/C=C(\C)C(OC(N)=O)C(OC)/C=C\C=C(/C)C(=O)NC(=C(/C=N/N3CCOCC3)C1=O)C2=O (stereo not drawn)
inactive: dose: 12.5 mg/kg/injection, schedule: Q01DX005 (ip), vehicle: other 106 % of control | dose: 25.0 mg/kg/injection, schedule: Q01DX005 (ip), vehicle: other 97 % of control | dose: 100.0 mg/kg/injection, schedule: Q01DX005 (ip), vehicle: other 106 % of control | dose: 200.0 mg/kg/injection, schedule: Q01DX005 (ip), vehicle: other 89 % of control

Clc1ccc2nc(CBr)cnc2c1
inactive: dose: 0.75 mg/kg/injection, schedule: Q01DX009 (ip), vehicle: saline with Tween-80 97 % of control | dose: 1.5 mg/kg/injection, schedule: Q01DX009 (ip), vehicle: saline with Tween-80 86 % of control | dose: 3.0 mg/kg/injection, schedule: Q01DX009 (ip), vehicle: saline with Tween-80 97 % of control | dose: 6.0 mg/kg/injection, schedule: Q01DX009 (ip), vehicle: saline with Tween-80 88 % of control | dose: 6.25 mg/kg/injection, schedule: Q01DX009 (ip), vehicle: saline with Tween-80 87 % of control

Cc1cc(=O)[nH]c2c(C)cc(-c3cc(C)c4[nH]c(=O)cc(C)c4c3)cc12
inactive: [12] 102 % of control | dose: 200.0 mg/kg/injection, schedule: Q01DX009 (ip), vehicle: saline 108 % of control | dose: 400.0 mg/kg/injection, schedule: Q01DX009 (ip), vehicle: saline 105 % of control

CS(=O)(=O)OCCCCOS(C)(=O)=O
inactive: dose: 3.13 mg/kg/injection, schedule: Q01DX009 (ip), vehicle: saline 108 % of control | dose: 6.25 mg/kg/injection, schedule: Q01DX009 (ip), vehicle: saline 105 % of control | [14] 106 % of control and 107 % of control | [8] 97 % of control and 100 % of control and 102 % of control | [11] 95 % of control and 105 % of control

O=c1c(O)c(-c2cc(O)c(O)c(O)c2)oc2cc(O)cc(O)c12
inactive: dose: 25.0 mg/kg/injection, schedule: Q02DX009 (ip), vehicle: saline with Tween-80 95 % of control | dose: 50.0 mg/kg/injection, schedule: Q02DX009 (ip), vehicle: saline with Tween-80 110 % of control | dose: 100.0 mg/kg/injection, schedule: Q02DX009 (ip), vehicle: saline with Tween-80 105 % of control

Cc1[nH]c(=O)[nH]c(=O)c1C
inactive: dose: 50.0 mg/kg/injection, schedule: Q04DX003 (ip), vehicle: Klucel (hydroxypropylcellulose) (HPC) 88 % of control | [13] 88 % of control | [6] 97 % of control | [5] 91 % of control | [7] 91 % of control

O=C(c1ccncc1)c1c(Cc2ccccc2)ccc2ccccc12
inactive: [10] 100 % of control | [15] 99 % of control | dose: 200.0 mg/kg/injection, schedule: Q01DX009 (ip), vehicle: saline with Tween-80 95 % of control | dose: 400.0 mg/kg/injection, schedule: Q01DX009 (ip), vehicle: saline with Tween-80 95 % of control

CCc1c(CC(=O)O)c2cc(C)ccc2n1Cc1ccc(Cl)cc1
inactive: dose: 3.12 mg/kg/injection, schedule: Q01DX009 (ip), vehicle: Klucel (hydroxypropylcellulose) (HPC) 110 % of control and 119 % of control | dose: 6.25 mg/kg/injection, schedule: Q01DX009 (ip), vehicle: Klucel (hydroxypropylcellulose) (HPC) 106 % of control and 114 % of control | [14] 91 % of control and 111 % of control | dose: 25.0 mg/kg/injection, schedule: Q01DX009 (ip), vehicle: Klucel (hydroxypropylcellulose) (HPC) 88 % of control and 106 % of control and 97 % of control | [9] 97 % of control | [4] 101 % of control and 104 % of control and 105 % of control | [10] 97 % of control | [1] 104 % of control | [13] 88 % of control and 95 % of control and 90 % of control | [15] 88 % of control | [2] 88 % of control

C1CC[N-]CC1.C1CC[N-]CC1.[Cl][Pt+2]([Cl])([Cl])[Cl]
inactive: [4] 111 % of control | [13] 120 % of control | [5] 123 % of control

Cc1cc(O)c(C)c(C)c1Cl
inactive: [9] 100 % of control | [10] 97 % of control | [1] 92 % of control | [15] 97 % of control | [2] 95 % of control

— PubChem BioAssay AID192 (DTP/NCI, 2004)
